From ChEMBL document CHEMBL5096184, “Structure activity relationship in β-carboline derived anti-malarial agents” (Eur J Med Chem, 2021)
≈ marks a conversion by molar mass, not a printed value.

Legend:
Plasmodium falciparum [1] = assay: Antimalarial activity against chloroquine sensitive Plasmodium falciparum K1; assay type: functional, organism-based
Plasmodium falciparum [2] = assay: Antimalarial activity against chloroquine sensitive Plasmodium falciparum 3D7; assay type: functional, organism-based
[3] = Selectivity index, ratio of IC50 for rat L6 cells to IC50 for Plasmodium falciparum K1; assay type: toxicity; conditions: L6 cells versus Plasmodium falciparum K1, read-out: Ratio IC50
[4] = Cytotoxicity against rat L6 cells assessed as reduction in cell viability; assay type: toxicity, cell-based
Plasmodium falciparum [5] = assay: Antimalarial activity against Plasmodium falciparum K1; assay type: functional, organism-based
Trypanosoma cruzi = assay: Antitrypanosomal activity against Trypanosoma cruzi Tulahuen C2C4; assay type: functional, organism-based
Leishmania donovani = assay: Antileishmanial activity against Leishmania donovani MHOM-ET-67/L82; assay type: functional, organism-based
Trypanosoma brucei = assay: Antitrypanosomal activity against Trypanosoma brucei rhodesiense STIB 900; assay type: functional, organism-based
Plasmodium falciparum [6] = assay: Antimalarial activity against multi drug resistant Plasmodium falciparum W2; assay type: functional, organism-based
Plasmodium falciparum [7] = assay: Antimalarial activity against chloroquine-resistant Plasmodium falciparum; assay type: functional, organism-based
Plasmodium falciparum [8] = assay: Antimalarial activity against Plasmodium falciparum W2 (MRA-157) incubated for 72 hrs; assay type: functional, organism-based
Plasmodium falciparum [9] = assay: Antimalarial activity against Plasmodium falciparum D6; assay type: functional, organism-based
Plasmodium falciparum [10] = assay: Antiplasmodial activity against chloroquine sensitive Plasmodium falciparum FCB1-R/Colombia; assay type: functional, organism-based
Plasmodium falciparum [11] = assay: Antiplasmodial activity against chloroquine sensitive Plasmodium falciparum W2/Indochina; assay type: functional, organism-based
Plasmodium falciparum [12] = assay: Antiplasmodial activity against chloroquine sensitive Plasmodium falciparum FCA 20/Ghana; assay type: functional, organism-based
Plasmodium falciparum [13] = assay: Antiplasmodial activity against GHA chloroquine sensitive Plasmodium falciparum; assay type: functional, organism-based
[14] = Cytotoxicity against human MRC5 cells; assay type: toxicity, cell-based
[15] = Plasmodium falciparum, W2/Indochina
[16] = Plasmodium falciparum, FCA 20/Ghana

Structure (SMILES): COC(=O)c1cc2c3c(c1)c1cc(Cl)ccc1n3C=C(C)OC2
- IC50 (Plasmodium falciparum [1]): > 2.45 µM
- IC50 (Plasmodium falciparum [2]): > 1.78 µM

Structure (SMILES): CCCc1cccc(-[n+]2ccc3c(c2)[nH]c2ccc(Br)cc23)c1
- selectivity ratio [3]: 60
- IC50 [4]: 27.5 µM
- IC50 (Plasmodium falciparum [5]): 0.459 µM
- IC50 (Trypanosoma cruzi): 12.6 µM
- IC50 (Leishmania donovani): 20.4 µM
- IC50 (Trypanosoma brucei): 4.5 µM

Structure (SMILES): Cc1ccc(C2NCCc3c2[nH]c2ccccc32)cc1 (centres undefined)
- IC50 (Plasmodium falciparum [6]): 7.6 µM

Structure (SMILES): COC(=O)C1Cc2c([nH]c3ccccc23)C(c2c[nH]c3ccccc23)=N1 (centres undefined)
- IC50 (Plasmodium falciparum [7]): > 29 µM

Structure (SMILES): COC(=O)c1cc2c3c(c1)c1cc(Br)ccc1n3C=C(C)OC2
- IC50 (Plasmodium falciparum [2]): > 5 µM

Structure (SMILES): c1ccc2c(C3NCCc4c3[nH]c3ccccc43)c[nH]c2c1 (centres undefined)
- IC50 (Plasmodium falciparum [7]): 5.1 µM

Structure (SMILES): O=C(O)c1cc2c([nH]c3ccccc32)c(-c2c[nH]c3ccccc23)n1
- IC50 (Plasmodium falciparum [7]): > 3.1 µM

Structure (SMILES): Brc1ccc(C2NCCc3c2[nH]c2ccccc32)cc1 (centres undefined)
- IC50 (Plasmodium falciparum [8]): 6.9 µM

Structure (SMILES): O[C@]12C=C[C@@H]3CCN(CCCC/C=C\CC1)C[C@@]31C[C@@H]3CCCCCCN3[C@H]12
- IC50 (Plasmodium falciparum [9]): 0.2 µg/mL (≈ 0.52 µM)

Structure (SMILES): COc1ccc2[nH]cc(C3NCCc4c3[nH]c3ccc(OC)cc43)c2c1 (centres undefined)
- IC50 (Plasmodium falciparum [7]): 8 µM

Structure (SMILES): C/C=C/CC1OC(C)=Cn2c3ccccc3c3cc(C(=O)OC)cc1c32 (centres undefined)
- IC50 (Plasmodium falciparum [2]): > 5 µM

Structure (SMILES): Clc1ccc2[nH]c3c(N4CCC(N5CCCC5)CC4)nccc3c2c1
- IC50 (Plasmodium falciparum [5]): 0.93 µM

Structure (SMILES): C=C[C@H]1CN2CCc3c([nH]c4c([C@@H]5CCCN5C)c(O)ccc34)[C@@H]2C[C@@H]1CC1c2[nH]c3ccccc3c2CCN1C (some centres undefined)
- IC50 (Plasmodium falciparum [10]): < 0.5 µM
- IC50 (Plasmodium falciparum [11]; [15]): 0.152 µM
- IC50 (Plasmodium falciparum [12]; [16]): 0.12 µM

Structure (SMILES): Clc1ccc2[nH]c3c(N4CCC(N5CCCCC5)CC4)nccc3c2c1
- IC50 (Plasmodium falciparum [5]): 10.2 µM

Structure (SMILES): C=C(C#N)C1OC(C)=Cn2c3ccccc3c3cc(C(=O)OC)cc1c32 (centres undefined)
- IC50 (Plasmodium falciparum [2]): > 5 µM

Structure (SMILES): CN1CCc2c3n(c4ccccc24)C(O)C[C@H](C2=CCOC2=O)C[C@@H]31 (some centres undefined)
- IC50 (Plasmodium falciparum [12]): 25.9 µM
- IC50 (Plasmodium falciparum [12]; [16]): 17 µM

Structure (SMILES): CC(C)(C)OC(=O)CC[C@@H]1NC(=O)[C@H]2Cc3c([nH]c4ccccc34)C(c3ccc4c(c3)OCO4)N2C1=O (some centres undefined)
- IC50 (Plasmodium falciparum [13]): 60 µM
- IC50 [14]: > 64 µM

Structure (SMILES): COC(=O)c1cc2c([nH]c3ccccc32)c(-c2c[nH]c3ccccc23)n1
- IC50 (Plasmodium falciparum [7]): > 29 µM

Structure (SMILES): Cc1cccc(C2NCCc3c2[nH]c2ccccc32)c1 (centres undefined)
- IC50 (Plasmodium falciparum [6]): 38.1 µM

Structure (SMILES): CN(C)c1ccc(C2NCCc3c2[nH]c2ccccc32)cc1 (centres undefined)
- IC50 (Plasmodium falciparum [8]): 3.9 µM

Structure (SMILES): COC(=O)c1cc2c3c(c1)c1ccccc1n3C=C(C)OC2C1C=CCCC1 (centres undefined)
- IC50 (Plasmodium falciparum [1]): > 5 µM
- IC50 (Plasmodium falciparum [2]): 1.64 µM

Structure (SMILES): COc1cc(C2NCCc3c2[nH]c2ccccc32)c([N+](=O)[O-])cc1OC (centres undefined)
- IC50 (Plasmodium falciparum [8]): 11.3 µM

Structure (SMILES): O=C1N[C@@H](COCc2ccccc2)C(=O)N2C(c3ccc4c(c3)OCO4)c3[nH]c4ccccc4c3C[C@H]12 (some centres undefined)
- IC50 (Plasmodium falciparum [13]): > 64 µM
- IC50 [14]: > 64 µM

Structure (SMILES): CCN(CC)CCC(C)Nc1nccc2c1[nH]c1ccc(Cl)cc12 (centres undefined)
- IC50 (Plasmodium falciparum [5]): 0.24 µM

Structure (SMILES): COc1ccc(OC)c(C2NCCc3c2[nH]c2ccccc32)c1 (centres undefined)
- IC50 (Plasmodium falciparum [8]): 29.2 µM

Structure (SMILES): COC(=O)c1cc2c3c(c1)c1cc(Cl)ccc1n3C=C(C)OC2C/C=C(\C)CCC=C(C)C (centres undefined)
- IC50 (Plasmodium falciparum [1]): > 5 µM
- IC50 (Plasmodium falciparum [2]): 1.55 µM

Structure (SMILES): O=[N+]([O-])c1ccccc1C1NCCc2c1[nH]c1ccccc21 (centres undefined)
- IC50 (Plasmodium falciparum [8]): 47.7 µM

Structure (SMILES): C=CCC1OC(C)=Cn2c3ccc(Cl)cc3c3cc(C(=O)OC)cc1c32 (centres undefined)
- IC50 (Plasmodium falciparum [1]): > 5 µM
- IC50 (Plasmodium falciparum [2]): > 5 µM

Structure (SMILES): O=[N+]([O-])c1ccc(C2NCCc3c2[nH]c2ccccc32)cc1 (centres undefined)
- IC50 (Plasmodium falciparum [8]): 1.7 µM

Structure (SMILES): C=CCC1OC(C)=Cn2c3ccccc3c3cc(C(=O)OC)cc1c32 (centres undefined)
- IC50 (Plasmodium falciparum [1]): > 5 µM
- IC50 (Plasmodium falciparum [2]): > 5 µM

Structure (SMILES): NCCCC[C@H]1NC(=O)[C@H]2Cc3c([nH]c4ccccc34)C(c3ccc4c(c3)OCO4)N2C1=O (some centres undefined)
- IC50 (Plasmodium falciparum [13]): 4 µM
- IC50 [14]: > 64 µM

Structure (SMILES): COC(=O)c1cc2c3c(c1)c1ccccc1n3C=C(C)OC2C1=CCCC=C1 (centres undefined)
- IC50 (Plasmodium falciparum [1]): > 5 µM
- IC50 (Plasmodium falciparum [2]): > 5 µM

Structure (SMILES): Cc1ccccc1C1NCCc2c1[nH]c1ccccc21 (centres undefined)
- IC50 (Plasmodium falciparum [6]): 15.2 µM

Structure (SMILES): CCN(CC)CCC(C)Nc1nccc2c1[nH]c1ccc(F)cc12 (centres undefined)
- IC50 (Plasmodium falciparum [5]): 1.2 µM

Structure (SMILES): COC(=O)C1Cc2c([nH]c3ccccc23)C(c2c[nH]c3ccccc23)N1 (centres undefined)
- IC50 (Plasmodium falciparum [7]): 13.6 µM

Structure (SMILES): CCN(CC)CCC(C)Nc1nccc2c1[nH]c1ccccc12 (centres undefined)
- IC50 (Plasmodium falciparum [5]): 0.42 µM

Structure (SMILES): O=C1N[C@@H](Cc2c[nH]c3ccccc23)C(=O)N2C(c3ccc4c(c3)OCO4)c3[nH]c4ccccc4c3C[C@H]12 (some centres undefined)
- IC50 (Plasmodium falciparum [13]): 25 µM
- IC50 [14]: 35 µM

Structure (SMILES): FC(F)(F)c1ccc(C2NCCc3c2[nH]c2ccccc32)cc1 (centres undefined)
- IC50 (Plasmodium falciparum [8]): 12.6 µM

Structure (SMILES): CCN(CC)C1CCN(c2nccc3c2[nH]c2ccc(Cl)cc23)CC1
- IC50 (Plasmodium falciparum [5]): 1.6 µM

Structure (SMILES): Fc1ccc(C2NCCc3c2[nH]c2ccccc32)cc1 (centres undefined)
- IC50 (Plasmodium falciparum [8]): 1.1 µM

Structure (SMILES): C/C=C1\CN2CCc3c([nH]c4ccccc34)[C@@H]2C[C@@H]1CC1=NCCc2c1[nH]c1ccccc21
- IC50 (Plasmodium falciparum [10]): < 2 µM
- IC50 (Plasmodium falciparum [11]; [15]): 0.032 µM
- IC50 (Plasmodium falciparum [12]; [16]): 0.857 µM

Structure (SMILES): C[n+]1ccc2c(c1)[nH]c1ccc(Br)cc12
- IC50 (Leishmania donovani): > 223 µM

Structure (SMILES): N#Cc1ccc(C2NCCc3c2[nH]c2ccccc32)cc1 (centres undefined)
- IC50 (Plasmodium falciparum [8]): 1.1 µM

Structure (SMILES): CC1C2=CN3CCc4c([nH]c5ccc(O)cc45)C3CC2CC2C3C(CCN2C)c2ccccc2N13 (stereo in doubt; 33)
- IC50 (Plasmodium falciparum [11]): 12.7 µM
- IC50 (Plasmodium falciparum [12]): 9.55 µM

Structure (SMILES): CC1C2=CN3CCc4c([nH]c5ccc(O)cc45)C3CC2CC2C3C(CCN2C)c2ccccc2N13 (stereo in doubt; 34)
- IC50 (Plasmodium falciparum [10]): 2 µM
- IC50 (Plasmodium falciparum [11]): 4.57 µM
- IC50 (Plasmodium falciparum [12]; [16]): 12.6 µM

Structure (SMILES): CC1NCCc2c1[nH]c1ccccc21 (centres undefined) [TETRAHYDROHARMAN]
- IC50 (Plasmodium falciparum [6]): 1.4 µM
